Key:
[1] = system: A2780 xenograft; assay: Xenograft Tumor Model; type: in vivo, mice; details: A2780, Ovary, ARID1A; 20 mg/kg PO QDx35
Method: (§1) To evaluate in vivo efficacy of a test compound, multiple xenograft tumor models are utilized. Briefly, 5-10×10^6 tumor cells in a 1:1 MATRIGEL® mix (0.2 mL total volume) are injected subcutaneously into the female athymic nude mice (Envigo, Harlan laboratories) for a majority of xenograft tumor models. Alternate mice strains are utilized to establish MDAMB468 (NOD SCID Gamma, Jackson labs), CT26 and EMT6 (BALB/c, Envigo, Harlan Laboratories) xenografts. After allowing tumors to reach a desired size of ˜300-500 mm^3, animals are randomized into groups of 6-8 for efficacy studies. Test compound is administered via oral gavage (PO) at indicated doses and regimens. Tumor growth and body weight are monitored over time to evaluate efficacy and signs of toxicity.
(§2) Test compound is formulated in 5% N-methyl-2-pyrrolidone (NMP) in 1% hydroxyethylcellulose, 0.25% polysorbate 80, 0.05% antifoam in purified water (HEC) and administered by oral gavage (final volume 0.2 mL) at the doses indicated in Table 4. A test compound is formulated on a weekly basis and stored at 4° C. Vehicles are administered to the control groups according the schedules used above using a volume of 0.2 mL per dose. Mice are dosed via oral gavage and tumor samples are collected at termination and stored at −80° C.
(§3) Tumor size and body weight are recorded and analyzed bi-weekly. Blood is collected using DBS (dried blood spot) card 2 hours after dose and at termination. Tumors are collected at study termination, cut into 3 sections and either snap frozen for exposure and protein analysis, or placed in RNAlater® for RNA analysis. Tissue samples are frozen and stored at −80° C.
(§4) Delta T/C % is calculated when the endpoint tumor volume in a treated group is at or above baseline tumor volume. The formula is 100*(T−T0)/(C−C0). Here, T and C are mean endpoint tumor volumes in the treated or control group, respectively. TO and CO are mean baseline tumor volumes in those groups. *: Significant (p<0.05)

[2] = system: COLO205 xenograft; assay: Xenograft Tumor Model; type: in vivo, mice; details: COLO205, Colorectal; 20 mg/kg PO QDx28
Method: as §1, §2, §3, §4

[3] = system: CT26 xenograft; assay: Xenograft Tumor Model; type: in vivo, mice; details: CT26, Colorectal; BALB/c; 20 mg/kg PO QDx24
Method: as §1, §2, §3, §4

[4] = system: EMT6 xenograft; assay: Xenograft Tumor Model; type: in vivo, mice; details: EMT6, Breast; BALB/c; 20 mg/kg PO QDx28
Method: as §1, §2, §3, §4

[5] = system: H441 xenograft; assay: Xenograft Tumor Model; type: in vivo, mice; details: H441, Lung; 20 mg/kg PO QDx35
Method: as §1, §2, §3, §4

[6] = system: H460 xenograft; assay: Xenograft Tumor Model; type: in vivo, mice; details: H460, Lung, ARID1A; 20 mg/kg PO QDx35
Method: as §1, §2, §3, §4

[7] = system: HCC1806 xenograft; assay: Xenograft Tumor Model; type: in vivo, mice; details: HCC1806, Breast, KMT2C; 20 mg/kg PO QDx28
Method: as §1, §2, §3, §4

[8] = system: HCT116 xenograft; assay: Xenograft Tumor Model; type: in vivo, mice; details: HCT116, Colorectal, KMT2C; 25 mg/kg PO QDx21
Method: as §1, §2, §3, §4

[9] = system: MDAMB231 xenograft; assay: Xenograft Tumor Model; type: in vivo, mice; details: MDAMB231, Breast; 20 mg/kg PO QDx35
Method: as §1, §2, §3, §4

[10] = system: MDAMB468 xenograft; assay: Xenograft Tumor Model; type: in vivo, mice; details: MDAMB468, Breast, ARID1A, RB1; NOD SCID Gamma; 20 mg/kg PO QDx28
Method: as §1, §2, §3, §4

[11] = system: MIAPACA2 xenograft; assay: Xenograft Tumor Model; type: in vivo, mice; details: MIAPACA2, Pancreatic, ARID1A; 20 mg/kg PO QDx35
Method: as §1, §2, §3, §4

[12] = system: MKN45 xenograft; assay: Xenograft Tumor Model; type: in vivo, mice; details: MKN45, Stomach, KMT2C; 20 mg/kg PO QDx35
Method: as §1, §2, §3, §4

[13] = biological target: CDK7/CyclinH/Mat1 (Homo sapiens, UniProt P50613); assay: Biochemical assay for inhibition of CDK7/CyclinH/MAT1 (radiolabel filter binding)
CDK7/CyclinH/Mat1, sequence (P50613 whole entry): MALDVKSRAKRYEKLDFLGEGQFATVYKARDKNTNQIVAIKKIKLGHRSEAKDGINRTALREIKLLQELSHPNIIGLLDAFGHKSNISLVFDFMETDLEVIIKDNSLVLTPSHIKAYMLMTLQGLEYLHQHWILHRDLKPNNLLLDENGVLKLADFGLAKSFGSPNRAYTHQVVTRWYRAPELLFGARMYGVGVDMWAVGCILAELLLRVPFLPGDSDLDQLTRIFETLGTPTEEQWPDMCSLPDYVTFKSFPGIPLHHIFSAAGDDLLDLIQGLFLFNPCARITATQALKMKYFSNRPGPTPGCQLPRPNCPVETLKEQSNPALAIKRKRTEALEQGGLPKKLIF
CDK7/CyclinH/Mat1, sequence (P51946 whole entry partner): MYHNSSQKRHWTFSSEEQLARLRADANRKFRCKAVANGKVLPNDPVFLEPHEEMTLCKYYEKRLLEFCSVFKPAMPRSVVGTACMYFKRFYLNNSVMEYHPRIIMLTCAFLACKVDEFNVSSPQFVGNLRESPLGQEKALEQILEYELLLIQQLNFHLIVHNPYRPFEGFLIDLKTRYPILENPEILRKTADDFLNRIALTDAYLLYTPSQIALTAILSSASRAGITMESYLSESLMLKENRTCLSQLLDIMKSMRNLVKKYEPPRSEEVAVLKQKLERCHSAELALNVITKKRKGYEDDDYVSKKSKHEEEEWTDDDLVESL
CDK7/CyclinH/Mat1, sequence (P51948 whole entry partner): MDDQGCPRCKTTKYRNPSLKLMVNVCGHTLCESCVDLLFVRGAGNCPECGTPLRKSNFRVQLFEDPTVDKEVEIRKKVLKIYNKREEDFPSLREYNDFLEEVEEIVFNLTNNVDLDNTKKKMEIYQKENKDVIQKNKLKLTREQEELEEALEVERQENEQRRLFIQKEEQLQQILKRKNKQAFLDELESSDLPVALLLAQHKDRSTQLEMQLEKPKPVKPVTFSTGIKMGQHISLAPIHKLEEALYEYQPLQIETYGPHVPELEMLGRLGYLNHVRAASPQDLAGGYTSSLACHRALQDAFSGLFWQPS
Method: The purpose of this assay is to measure the ability of a compound of the invention to inhibit CDK7/CyclinH/Mat1 complex kinase activity.
The IC50 activity of the inhibitor is determined using radiolabel filter binding (FB) assays using the purified human recombinant enzyme in the presence of ATP//[3^3P]ATP and peptide substrate. The ATP concentrations chosen are at or near the enzyme Km for ATP.
Reactions are carried out in 96 well polystyrene plates in a final volume of 25 μL per well. 5 μL of test compound in 20% DMSO, 10 μL of substrate solution (ATP/33PATP and CDK7/9 tide) and 10 μL of enzyme solution are mixed. […] The enzyme solution is prepared for a final concentration of 1 nM CDK7/CyclinH/Mat1 enzyme [Proqinase 0366-0360-4 Lot 002)] diluted in kinase buffer. Test compounds are serially diluted 1:3 in 20% DMSO to create a 10 point curve at a starting concentration of 20 μM. 20% DMSO buffer alone without test compound is employed as high control (full activity in the absence of any inhibitor), 500 mM EDTA is used to determine the level of background in the absence of enzyme activity (low control). After mixing 5 μL of compounds with 10 μL of enzyme solution the plate is incubated for 0 or 180 minutes at 22° C. After that time the reaction is initiated by the addition of 10 μL substrate solution and incubated for 50 minutes at 22° C. The reaction is terminated by the addition of 80 μL of cold 10% ortophosphoric solution. The Filter Plates (opaque, non-sterile filter plates) are prewashed with 10 μL of 10% orthophosphoric solution to each well. 100 μL of the mixture are transferred to a phosphocellulose filter and incubated at room temperature for 45 minutes. Filter plates are washed with 200 μL 0.5% orthophosphoric acid 3 times on a filter plate processor. Incorporation of 33Pi (counting of “cpm”) is determined by adding 80 μL of MICROSCINT™ to each well and read on a counter after an hour. Data is processed through a [sequence] […] ® tool. Data are analyzed using a 4-parameter nonlinear logistic equation (four-parameter logistic concentration-response curve): Y=bot+[(top-bot)/1+(x/IC50)slope] where Y=% inhibition, X=concentration yielding y % inhibition, Bottom=minimum value of y attained by curve, Top=maximum value of y attained by curve and Slope=steepness of curve at IC50. % Inh=[(median Max−x/median Max−median Min)]·100
IC50: concentration of compound that reduces a given response (ligand binding, enzyme response) by 50%.

Cc1cc(NC2CCN(C(=O)O[C@H]3CCN(C(=O)/C=C/CN(C)C)C3)CC2)n2ncc(C(C)C)c2n1 [Example 1, [(3S)-1-[(E)-4-(dimethylamino)but-2-enoyl]pyrrolidin-3-yl] 4-[(3-isopropyl-5-methyl-pyrazolo[1,5-a]pyrimidin-7-yl)amino]piperidine-1-carboxylate]
Avg. ΔT/C [1]: −41% | Avg. ΔT/C [2]: −4% | Avg. ΔT/C [3]: 52% | Avg. ΔT/C [4]: 17% | Avg. ΔT/C [5]: 0% | Avg. ΔT/C [6]: 16% | Avg. ΔT/C [7]: −87% | Avg. ΔT/C [8]: −17% | Avg. ΔT/C [9]: −25% | Avg. ΔT/C [10]: −91% | Avg. ΔT/C [11]: 10% | Avg. ΔT/C [12]: 57% | IC50 ([13]; IC50 in CDK7, 3 hours of preincubation of CDK7 enzyme): 2.37 nM | IC50 ([13]; IC50 in CDK7, without preincubation): 17.3 nM
